According to patent EP1591123A1, “USES OF NARINGENIN, NARINGIN AND SALTS THEREOF AS EXPECTORANTS IN THE TREATMENT OF COUGH, AND COMPOSITIONS THEREOF” (Su, Wei-wei, priority 2003, dated 2004):
Counter-ions that a name gives are not always drawn.

System: mice
Assay: Dispel phlegm test of Naringenin, Phenol Red excretion in trachea (Example 31)
Type: in vivo
Details: for Dispel phlegm ratio: group given drug / blank control group x 100%; for Excretion quantity of Phenol Red / Rectified excretion quantity of Phenol Red: mice, oral, X±S; for Rectified excretion quantity of Phenol Red: excretion quantity / weight of animal
Excerpt: • 1. Animal: 80 healthy female mice weighing 18.5-22.0g was grouped into 8 groups random after labeled, which was selected from 90 female mice weighing 18.0-22.1g. Every group was 10 mice. Eight groups were set including negative control group, positive control group, high dose group of Naringenin, middle dose group of Naringenin, low dose group of Naringenin, high dose group of sodium salt of Naringenin, middle dose group of sodium salt of Naringenin, low dose group of sodium salt of Naringenin. […] Sample source and preparation • 1) Blank control group: physiological saline, 0.9% NaCl; • 2) Positive control group: 0.2g Tankejing was dissolve into 10 ml 0.9% NaCl and the sample concentration was 20 mg/ml to obtain the solution for positive control. • 3) low dose group of Naringenin: 0.5 mg/ml solution of Naringenin was prepared by weighting out the appropriate amount of 5 mg Naringenin and dissolving it by ultrasonication in 10 ml physiological saline. • 4) middle dose group of Naringenin: 1.5 mg/ml solution of Naringenin was prepared by weighting out the appropriate amount of 15 mg Naringenin and dissolving it by ultrasonication in 10 ml physiological saline. • 5) high dose group of Naringenin: 4.5 mg/ml solution of Naringenin was prepared by weighting out the appropriate amount of 45 mg Naringenin and dissolving it by ultrasonication in 10 ml physiological saline. • 6) low dose group of sodium salt of Naringenin: 0.5 mg/ml solution of sodium salt of Naringenin was prepared by weighting out the appropriate amount of 5 mg sodium salt of Naringenin and dissolving it by ultrasonication in 10 ml physiological saline. • 7) middle dose group of sodium salt of Naringenin: 1.5 mg/ml solution of sodium salt of Naringenin was prepared by weighting out the appropriate amount of 15 mg sodium salt of Naringenin and dissolving it by ultrasonication in 10 ml physiological saline. • 8) high dose group of sodium salt of Naringenin: 4.5 mg/ml solution of sodium salt of Naringenin was prepared by weighting out the appropriate amount of 45 mg sodium salt of Naringenin and dissolving it by ultrasonication in 10 ml physiological saline. • 3. Experimental Method: • 1) preparations of Phenol Red calibration standard: 12.5 ng/ml solution of Phenol Red was prepared by weighting out the appropriate amount of Phenol Red and dissolving it by ultrasonication in 5% NaHCO3. The series solution including 6.25ng/ml, 3.125ng/ml, 1.5625 ng/ml, 0.7813 ng/ml, 0.3906 ng/ml, 0.1953 ng/ml, 0.0977 ng/ml, 0.0488 ng/ml was prepared by diluting, which was detected by ultraviolet spectrometer. The calibration curve was calculated by concentration of Phenol Red as y-axis and OD value as x-axis. And the excretion account of Phenol Red in mice was quantitated by calibration curve. • 2) Animals were fasted for 12 hr before dosing. • 3) Animals were oral administered with labeled number, each animal was administered with 3 min and each group was accomplished in 30 min. • 4) After administered 30 min, every animal was injected 2 ml 5% Phenol Red solution via celiac injection. The time of every animal was 3 min. • 5) Every animal was executed with 3 min interval after celiac injection 30 min, and animal trachea was peeled off with forceps after neck skin sniped, which was riveted on operating table. • 6) plasma and Phenol Red adhered to trachea ektexine was sweeped by 0.9% NaCl solution with an injector. And filter paper was used to blot up the solution. • 7) Scissors cut down the animal trachea including thyroid cartilage and trachea back-end. • 8) The trachea was set in test tube with 1.5 ml 5% NaHCO3. • 9) The experiment of every animal was completed in 3 min. […]

Structure (SMILES): O=C1CC(c2ccc(O)cc2)Oc2cc(O)cc(O)c21 (centres unmarked) [Naringenin, 4', 5, 7 -trihydroxyflavanone]
- Dispel phlegm ratio (5 mg/kg): 146.13%
- Dispel phlegm ratio (15 mg/kg): 159.97%
- Dispel phlegm ratio (45 mg/kg): 219.85%
- dispel phlegm effect (high dose group compared to positive control group of Tankejing): statistical better than Tankejing
- Excretion quantity of Phenol Red (5 mg/kg): 1.2757 ± 0.4020 ng
- Rectified excretion quantity of Phenol Red (5 mg/kg): 68.2832 ± 23.6102 ng/kg
- Excretion quantity of Phenol Red (15 mg/kg): 1.3523 ± 0.9303 ng
- Rectified excretion quantity of Phenol Red (15 mg/kg): 74.7504 ± 57.2020 ng/kg
- Excretion quantity of Phenol Red (45 mg/kg): 1.9257 ± 0.6713 ng
- Rectified excretion quantity of Phenol Red (45 mg/kg): 102.7325 ± 41.0313 ng/kg
- exudates increase of mice trachea (three doses (low, middle, high), versus negative control group): statistical significance stimulate the exudates increase of mice trachea

Structure (SMILES): O=C1C[C@@H](c2ccc(O)cc2)Oc2cc(O)cc(O)c21 [sodium salt of Naringenin]
- Dispel phlegm ratio (5 mg/kg): 148.72%
- Dispel phlegm ratio (15 mg/kg): 162.38%
- Dispel phlegm ratio (45 mg/kg): 224.93%
- Excretion quantity of Phenol Red (5 mg/kg): 1.3029 ± 0.3069 ng
- Rectified excretion quantity of Phenol Red (5 mg/kg): 69.4942 ± 16.3724 ng/kg
- Excretion quantity of Phenol Red (15 mg/kg): 1.4225 ± 0.7361 ng
- Rectified excretion quantity of Phenol Red (15 mg/kg): 75.8773 ± 39.2651 ng/kg
- Excretion quantity of Phenol Red (45 mg/kg): 1.9705 ± 0.6898 ng
- Rectified excretion quantity of Phenol Red (45 mg/kg): 105.1057 ± 36.7945 ng/kg
